Like-named read-outs stand apart in the source and are kept apart here.
Columns and labels:
Type in all cases: biochemical
[1] = molecular target: T1, β3Gal-T5 (Homo sapiens, UniProt Q9Y2C3, M85T); experiment: Galactosyltransferase assay, partially purified secreted recombinant β3Gal-T5, saccharide acceptors; settings: for β3Gal-T5 activity, substrate concentration 1 mM: acceptor 1 mM; for β3Gal-T5 activity, substrate concentration 5 mM: acceptor 5 mM
T1 construct: designed to exclude the hydrophobic transmembrane segment and to encode amino acid residues 25-310; secretion signal of vector pAcGP67B (gp67); made in house; host or cells: baculovirus; Sf9 cells (media) and High Five cells (serum-free medium, partially purified)
T1 sequence (Q9Y2C3 25-310 M85T): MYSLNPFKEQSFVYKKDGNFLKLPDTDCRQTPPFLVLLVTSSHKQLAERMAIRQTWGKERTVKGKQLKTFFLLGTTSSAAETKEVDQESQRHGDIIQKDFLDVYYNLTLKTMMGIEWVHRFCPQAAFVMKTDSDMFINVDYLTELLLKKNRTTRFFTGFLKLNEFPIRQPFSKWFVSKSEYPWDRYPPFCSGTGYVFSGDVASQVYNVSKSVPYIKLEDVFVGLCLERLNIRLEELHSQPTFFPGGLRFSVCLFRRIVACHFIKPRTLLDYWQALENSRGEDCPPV
Text: PCR product was cloned into the BamHI site of pAcGP67B (Pharmingen). […] This PCR product was cloned into the BamHI site of pVL1193 (Pharmingen). Both soluble and full length constructs were fully sequenced to confirm fidelity. Plasmids […]5-full were co-transfected with Baculo-GoldTM DNA (Pharmingen) as described previously (Bennett, […]. and Clausen, H. cDNA cloning and expression of a novel human UDP-N-acetyl-alpha-D-galactosamine. Polypeptide N-acetyl-galactosaminyl-transferase, GalNAc-T3. J. Biol. Chem. 271:17006-17012, 1996). Recombinant Baculo-virus were obtained after two successive amplifications in Sf9 cells grown in serum-containing medium, and titers of virus were estimated by titration in 24-well plates with monitoring of enzyme activities. […] J. Biol. […] J. Biol. […] Polypeptide N-acetyl-galactosaminyl-transferase, GalNAc-T3. J. Biol. Chem. 271:17006-17012, 1996). For large scale expression amplified virus was used to infect High FiveTM cells grown in serum-free media (Invitrogen) in upright roller bottles shaking at 140 rpm and 27° C. The kinetic properties were determined with partially purified, secreted forms of the enzymes. Semipurification of enzymes from serum-free medium of infected High-FiveTM cells was performed by sequential Amberlite, DEAE-Sephacel and 5-Sepharose chromatography as described previously ([…]., et al. […] J. Biol. Chem. 272:23503-23514, 1997). Comparisons of enzymes were performed relatively to the activity obtained with βGlcNAc-Bz1 (Tables II and III). Full length enzymes were assayed with 1% Triton CF54 homogenates of washed cells. […] Reaction products were quantified by Dowex-1 chromatography. […] P. and Clausen, H. […] J. Biol. Chem. 273:29295-29305, 1998). The transfer of Gal was evaluated after acid precipitation by filtration through Whatman GF/C glass fibre filters. […] Assays with glycolipid acceptors were conducted as previously described (Holmes, E. H. […] Arch Biochem Biophys 270:630-646, 1989) in reaction mixtures containing 2.5 μmol HEPES buffer, pH 7.2, μmol MnCl2, 100 μg taurodeoxycholate or Triton CF-54, 20 μg acceptor glycolipid, 15 nmol UDP-[^14C]-galactose (13,000 cpm/nmol) and enzyme in a total volume of 100 μl. Conditions for incubation and product isolation were as previously described (Id.).

[2] = molecular target: T2, β3Gal-T1 (Homo sapiens, UniProt Q9Y5Z6); experiment: Galactosyltransferase assay, recombinant β3Gal-T1, saccharide acceptors
T2 construct: The kinetic properties were determined with partially purified, secreted forms of the enzymes; made in house; host or cells: baculovirus; Sf9 / High Five insect cells, medium
T2 sequence (Q9Y5Z6 27-326 limits assumed): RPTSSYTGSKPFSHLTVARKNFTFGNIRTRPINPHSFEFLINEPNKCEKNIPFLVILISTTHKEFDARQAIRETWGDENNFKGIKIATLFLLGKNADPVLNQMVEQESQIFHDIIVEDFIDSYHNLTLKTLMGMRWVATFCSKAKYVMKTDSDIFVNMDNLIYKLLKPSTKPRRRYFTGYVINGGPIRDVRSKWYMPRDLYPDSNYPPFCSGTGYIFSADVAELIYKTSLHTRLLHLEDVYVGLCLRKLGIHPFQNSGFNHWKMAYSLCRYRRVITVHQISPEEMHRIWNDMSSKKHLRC

[3] = molecular target: T3, β3Gal-T2 (Homo sapiens, UniProt O43825); experiment: Galactosyltransferase assay, recombinant β3Gal-T2, saccharide acceptors
T3 construct: The kinetic properties were determined with partially purified, secreted forms of the enzymes; made in house; host or cells: baculovirus; Sf9 / High Five insect cells, medium
T3 sequence (O43825 46-422 limits assumed): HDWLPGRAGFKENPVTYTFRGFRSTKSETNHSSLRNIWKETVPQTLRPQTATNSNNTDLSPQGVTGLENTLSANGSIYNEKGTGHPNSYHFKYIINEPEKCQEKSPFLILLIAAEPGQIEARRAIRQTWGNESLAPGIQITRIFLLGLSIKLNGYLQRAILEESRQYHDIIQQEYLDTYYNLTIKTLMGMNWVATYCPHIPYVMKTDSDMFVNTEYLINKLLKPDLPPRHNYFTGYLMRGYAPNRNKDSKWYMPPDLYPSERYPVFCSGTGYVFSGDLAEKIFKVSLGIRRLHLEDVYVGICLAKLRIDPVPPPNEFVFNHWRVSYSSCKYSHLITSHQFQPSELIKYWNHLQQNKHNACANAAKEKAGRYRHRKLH

β3Gal-T5 activity, acceptor 0.2 mM [1] [nmol/min]	β3Gal-T5 ratio to value with βGlcNAc-Bzl, acceptor 0.2 mM [1]	β3Gal-T5 activity, acceptor 2 mM [1] [nmol/min]	β3Gal-T5 ratio to value with βGlcNAc-Bzl, acceptor 2 mM [1]	β3Gal-T1 activity, acceptor 0.2 mM [2] [nmol/min]	β3Gal-T1 ratio to value with βGlcNAc-Bzl, acceptor 0.2 mM [2]	β3Gal-T1 activity, acceptor 2 mM [2] [nmol/min]	β3Gal-T1 ratio to value with βGlcNAc-Bzl, acceptor 2 mM [2]	β3Gal-T2 activity, acceptor 0.2 mM [3] [nmol/min]	β3Gal-T2 ratio to value with βGlcNAc-Bzl, acceptor 0.2 mM [3]	β3Gal-T2 activity, acceptor 2 mM [3] [nmol/min]	β3Gal-T2 ratio to value with βGlcNAc-Bzl, acceptor 2 mM [3]	Vmax ([1]; Table V) [pmol/min]	Km ([1]; Table V, read-out: Km) [µM]	β3Gal-T5 activity, substrate concentration 1 mM [1] [nmol/min/mL]	β3Gal-T5 activity, substrate concentration 5 mM [1] [nmol/min/mL]	SMILES	other results
0.0	(0.0)	0.01	(0.1)	0.0	(0.0)	0.0	(0.0)	0.0	(0.0)	0.0	(0.0)					CC(=O)N[C@H]1[C@H](OC[C@H]2O[C@H](Oc3ccc([N+](=O)[O-])cc3)[C@H](NC(C)=O)[C@@H](O[C@@H]3O[C@H](CO)[C@H](O)[C@H](O)[C@H]3O)[C@H]2O)O[C@H](CO)[C@@H](O)[C@@H]1O [βGlcNAc(1,6)[βGal(1,3)]αGalNAc-p-Nph]	
0.3	(0.3)	0.2	(2.0)	0.0	(0.0)	0.0	(0.0)	0.0	(0.0)	0.0	(0.0)	931.1	2800	10.8	34.4	CC(=O)NC1C(OC2C(O)C(CO)OC(Oc3ccc([N+](=O)[O-])cc3)C2NC(C)=O)OC(CO)C(O)C1O [β-D-GlcNAc-(1–3)-α-D-GalNAc-p-Nph]	Km ([1]; acceptor substrate, read-out: apparent Km of β3Gal-T5): 2800 µM
												873.4	20400	1.5	3.9	CC(=O)N[C@H]1[C@H](OCc2ccccc2)O[C@H](CO)[C@@H](O)[C@@H]1O [β-D-GlcNAc-Bzl]	β3Gal-T5 activity with β-D-GlcNAc-Bzl (Table III) ([1]; β-D-GlcNAc-Bzl at 20 mM): 0.1 nmol/min; β3Gal-T5 activity with βGlcNAc-Bzl ([1]; β-D-GlcNAc-Bzl at 20 mM): 0.1 nmol/min; β3Gal-T1 activity with β-D-GlcNAc-Bzl (Table III) ([2]; β-D-GlcNAc-Bzl at 80 mM): 0.03 nmol/min; β3Gal-T1 activity with βGlcNAc-Bzl ([2]; β-D-GlcNAc-Bzl at 80 mM): 0.03 nmol/min; β3Gal-T2 activity with β-D-GlcNAc-Bzl (Table III) ([3]; β-D-GlcNAc-Bzl at 80 mM): 0.04 nmol/min; β3Gal-T2 activity with βGlcNAc-Bzl ([3]; β-D-GlcNAc-Bzl at 80 mM): 0.04 nmol/min
